Values joined by “and” are separate entries in the source; they are usually repeats but may differ in a detail not shown here. Identical values can stand only once. Counter-ions that a name gives are not always drawn. Like-named read-outs stand apart in the source and are kept apart here. Each block holds one compound with its values, some of them ahead of it.
Columns and labels:
[1] = test system: Diet Induced Obese (DIO) C57BL/6 mice; test: 10 day DIO mouse model (body weight, food intake, hematology, blood chemistry); assay type: in vivo
Description: The objective of this study design was to investigate the efficacy of disclosed compounds in a 10 day DIO mouse model. Effects on body weight, food intake, hematology and blood chemistry were the primary readouts of this study design. […] Mice were fed Research Diets D12492 (60% Kcal fat, 20% Kcal carbohydrate and 20% protein) and provided water ad libitum. DIO mice were received and housed in the facility for approximately two weeks prior to the start of test article administration. On Day −4 or −3, mice were randomized into study groups based on body weight and body weights were continued to be recorded daily for the duration of the study. Daily food intake was assessed starting on Study Day −2 by weighing of the food with hopper together to avoid loss of food in transfer.
(§1) Compounds were formulated into a 100% DMSO stock (at 9 mg/mL) prior to the start, and further diluted into the target working concentration using the vehicle of 10% DMSO in water. Prior to test article administration, starting on Day −3 a dosing acclimation occurred with all animals receiving a subcutaneous injection of vehicle (10% DMSO) only for 3 days. Starting on Day 1, test compounds or vehicle were administered based on individual body weight, subcutaneously, once a day for 10 days. All mice were sacrificed on Day 11, 24 hours following the final dosing on Day 10. After sacrifice, whole blood was collected and analyzed for hematology and blood chemistry parameters.
(§2) Compounds were tested vs. vehicle at various doses (1.0, 0.5, 0.3, 0.1, 0.03 mpk sc (mg per kg animal weight delivered subcutaneously), and the results are shown in Table 2 below.

[2] = test system: Sprague Dawley rats on 45% high fat diet; test: 11 day rat DIO model (body weight, food intake, hematology, blood chemistries); assay type: in vivo
Description: The objective of this study design is to investigate the efficacy of disclosed compounds in an 11 day rat DIO model used to screen compounds for pharmacologic efficacy on endpoints related to obesity and metabolism. Effects on body weight, food intake, hematology and blood chemistries were the primary readouts of this study design. […] Rats were fed Research Diets D12451 (45% High Fat) and provided water ad libitum. Rats were received and housed in the facility for at least two or three weeks prior to start of test article administration. On Day −4 or −3, rats were randomized into study groups based on body weight and body weights were continued to be recorded daily for the duration of the study. Daily food intake was assessed starting on Study Day −2 by weighing the hopper including the food to avoid loss of food in transfer.
as §1, with “for 11” for “for 10”, “All animals” for “All mice”, “11, approximately 2” for “11, 24”, “Day 11.” for “Day 10.”
as §2

[3] = test system: human fibrosarcoma cell line HT-1080; test: HT-1080 cell proliferation assay (CellTiter-Glo, 72 hours); assay type: cell-based
recombinant human MetAP2 = recombinant human MetAP2 (Homo sapiens (Human), UniProt P50579); test: recombinant human MetAP2 enzyme inhibition assay (MAS peptide / amino acid oxidase / Amplex UltraRed); assay type: biochemical; details: recombinant human MetAP2, 25 minutes at 25° C.
Sequence of recombinant human MetAP2 (P50579 whole entry): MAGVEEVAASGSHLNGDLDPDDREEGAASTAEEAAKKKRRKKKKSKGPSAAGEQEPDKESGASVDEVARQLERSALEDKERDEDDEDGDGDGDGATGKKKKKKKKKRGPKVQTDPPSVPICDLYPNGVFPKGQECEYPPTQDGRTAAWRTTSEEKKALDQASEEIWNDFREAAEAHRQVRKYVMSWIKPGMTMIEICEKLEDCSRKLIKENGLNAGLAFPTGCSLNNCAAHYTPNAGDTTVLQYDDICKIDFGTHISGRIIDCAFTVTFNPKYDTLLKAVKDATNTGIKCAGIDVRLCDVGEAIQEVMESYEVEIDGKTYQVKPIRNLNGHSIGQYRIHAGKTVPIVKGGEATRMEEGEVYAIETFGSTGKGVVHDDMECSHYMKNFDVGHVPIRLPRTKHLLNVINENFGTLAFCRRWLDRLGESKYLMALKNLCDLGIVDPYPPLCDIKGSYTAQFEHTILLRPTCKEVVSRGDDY
Description: Compounds are tested for their capacity to inhibit recombinant human MetAP2 activity using the following assay.
Flag tagged Human recombinant MetAP2 expressed and isolated for use as the enzyme source. 10 mM stock solutions of compounds were prepared in 100% DMSO and further diluted in 100% DMSO required concentration to 1 mM stocks. The stock compound solutions and DMSO vehicle controls were diluted to target final compound concentrations using assay buffer to a final concentration of 50 mM HEPES containing 100 mM NaCl, pH adjusted to 7.5. The MAS peptide was formulated to a 7.5 mM stock in distilled water and prior to use further diluted 1:4. […] 40 μl of enzyme was mixed with 100 μl of MnCl2 then further diluted in assay buffer to a final concentration of 16 μg/ml. To test for compound effect on MetAP2 enzyme activity, 5 μl of test compound, 10 μl of MAS substrate/amino acid oxidase mixture, 10 μl of MetAP2 was added to test wells in a 384 well black plate with blank wells containing no enzyme, replaced with 10 μl of assay buffer. All compounds were tested in duplicate on two occasions on the same day.
The plate was sealed with a TopSeal A cover and mixed briefly on an orbital mixer at 900 rpm. The plate was incubated for a further 25 minutes at 25° C. […] At the end of the MetAP2 incubation 25 μl Amplex/HRP mixture per well was added and the plate read plate on a plate reader.

[4] = HT-1080, 72 h, read-out: HT-1080 EC50 (nM)
[5] = HT-1080 cells, 72 hours incubation, CellTiter-Glo, read-out: HT-1080 EC50

Structure (SMILES): CO[C@@H]1[C@H](OC(=O)N2CC(CCN3CC(O)C3)C2)CC[C@]2(CO2)[C@H]1[C@@]1(C)O[C@@H]1CC=C(C)C [Example 6, (3R,4S,5S,6R)-5-methoxy-4-((2R,3R)-2-methyl-3-(3-methylbut-2-enyl)oxiran-2-yl)-1-oxaspiro[2.5]octan-6-yl 3-(2-(3-hydroxyazetidin-1-yl)ethyl)azetidine-1-carboxylate formate]
- DIO Mouse 10-day weight loss vs vehicle ([1]; mouse, in vivo): 11.8%
- DIO Rat 11-day weight loss vs vehicle ([2]; rat, in vivo, formate): 0.8% and 4.6%
- EC50 [3, 4]: < 0.3 nM

Structure (SMILES): CO[C@@H]1[C@H](OC(=O)N2CC(CCN3CCC(O)CC3)C2)CC[C@]2(CO2)[C@H]1[C@@]1(C)O[C@@H]1CC=C(C)C [Example 7, (3R,4S,5S,6R)-5-methoxy-4-((2R,3R)-2-methyl-3-(3-methylbut-2-en-1-yl)oxiran-2-yl)-1-oxaspiro[2.5]octan-6-yl 3-(2-(4-hydroxypiperidin-1-yl)ethyl)azetidine-1-carboxylate]
- DIO Mouse 10-day weight loss vs vehicle ([1]; DIO mouse, 0.3 mpk sc once a day, 10 days): 1.8%

Structure (SMILES): CO[C@@H]1[C@H](OC(=O)N2CC(CCN3CC(C)(O)C3)C2)CC[C@]2(CO2)[C@H]1[C@@]1(C)O[C@@H]1CC=C(C)C [Example 9, (3R,4S,5S,6R)-5-methoxy-4-((2R,3R)-2-methyl-3-(3-methylbut-2-enyl)oxiran-2-yl)-1-oxaspiro[2.5]octan-6-yl 3-(2-(3-hydroxy-3-methylazetidin-1-yl)ethyl)azetidine-1-carboxylate formate]
- DIO Mouse 10-day weight loss vs vehicle ([1]; mouse, in vivo): 7.4%
- DIO Rat 11-day weight loss vs vehicle ([2]; rat, in vivo, formate): 5.5% and 4.8%
- EC50 [3, 4]: < 0.3 nM

Structure (SMILES): CO[C@@H]1[C@H](OC(=O)N2CC(CCN3CC4C(C3)C4(F)F)C2)CC[C@]2(CO2)[C@H]1[C@@]1(C)O[C@@H]1CC=C(C)C (stereo partly drawn) [Example 22, (3R,4S,5S,6R)-5-methoxy-4-((2R,3R)-2-methyl-3-(3-methylbut-2-enyl)oxiran-2-yl)-1-oxaspiro[2.5]octan-6-yl 3-(2-(6,6-difluoro-3-azabicyclo[3.1.0]hexan-3-yl)ethyl)azetidine-1-carboxylate formate]
- DIO Mouse 10-day weight loss vs vehicle ([1]; mouse, in vivo): 14%
- EC50 [3, 4]: 0.3 to 1.3 nM

- IC50 (recombinant human MetAP2): < 50 nM
Structure (SMILES): CO[C@@H]1[C@H](OC(=O)N2CC(CCCN3CCCC3)C2)CC[C@]2(CO2)[C@H]1[C@@]1(C)O[C@@H]1CC=C(C)C [Example 59, (3R,4S,5S,6R)-5-methoxy-4-((2R,3R)-2-methyl-3-(3-methylbut-2-enyl)oxiran-2-yl)-1-oxaspiro[2.5]octan-6-yl 3-(3-(pyrrolidin-1-yl)propyl)azetidine-1-carboxylate formate]
- body weight loss vs vehicle at 0.3 mg/kg ([1]; 240 h, DIO mouse, 0.3 mpk sc once a day, 10 days): 9.1%

- EC50 [3, 5]: < 0.3 nM
Structure (SMILES): CNC(=O)OC1CN(C(=O)O[C@@H]2CC[C@]3(CO3)[C@@H]([C@@]3(C)O[C@@H]3CC=C(C)C)[C@@H]2OC)C1 [Example 74, (3R,4S,5S,6R)-5-methoxy-4-((2R,3R)-2-methyl-3-(3-methylbut-2-enyl)oxiran-2-yl)-1-oxaspiro[2.5]octan-6-yl 3-(methylcarbamoyloxy)azetidine-1-carboxylate]

Structure (SMILES): CCN(CC)CCNC(=O)CCC1CN(C(=O)O[C@@H]2CC[C@]3(CO3)[C@@H]([C@@]3(C)O[C@@H]3CC=C(C)C)[C@@H]2OC)C1 [Example 88, (3R,4S,5S,6R)-5-methoxy-4-((2R,3R)-2-methyl-3-(3-methylbut-2-enyl)oxiran-2-yl)-1-oxaspiro[2.5]octan-6-yl 3-(3-(2-(diethylamino)ethylamino)-3-oxopropyl)azetidine-1-carboxylate formate]
- DIO Mouse 10-day weight loss vs vehicle ([1]; mouse, in vivo): 9%
- DIO Rat 11-day weight loss vs vehicle ([2]; rat, in vivo): 4.4%
- EC50 [3, 4]: 0.3 to 1.3 nM

- EC50 [3, 5]: < 0.3 nM
Structure (SMILES): CCN(CC)CCC1CN(C(=O)O[C@@H]2CC[C@]3(CO3)[C@@H]([C@@]3(C)O[C@@H]3CC=C(C)C)[C@@H]2OC)C1 [Example 103, (3R,4S,5S,6R)-5-methoxy-4-((2R,3R)-2-methyl-3-(3-methylbut-2-enyl)oxiran-2-yl)-1-oxaspiro[2.5]octan-6-yl 3-(2-(diethylamino)ethyl)azetidine-1-carboxylate]

Structure (SMILES): CCN(CC)CCC1CCN1C(=O)O[C@@H]1CC[C@]2(CO2)[C@@H]([C@@]2(C)O[C@@H]2CC=C(C)C)[C@@H]1OC (stereo partly drawn) [Example 106, (3R,4S,5S,6R)-5-methoxy-4-((2R,3R)-2-methyl-3-(3-methylbut-2-enyl)oxiran-2-yl)-1-oxaspiro[2.5]octan-6-yl 2-(2-(diethylamino)ethyl)azetidine-1-carboxylate]
- DIO Mouse 10-day weight loss vs vehicle ([1]; DIO mouse, 0.1 mpk sc once a day, 10 days): 2%
- DIO Rat 11-day weight loss vs vehicle ([2]; DIO rat, 0.5 mpk sc once a day, 11 days): 4.82%
